# Experimental data: patent US8697694B2, “Substituted pyridine and pyrimidine derivatives and their use in treating viral infections” (priority 2008, dated 2014)
# Like-named read-outs stand apart in the source and are kept apart here.
# System: HCV replicon cells
# Experiment: Cell-based HCV replicon assay (replicon RNA level by real time PCR, Taqman)
# Details: Hepatitis C virus, 72 h, HCV replicon cells, read-out: EC90 (μM) range
# Outline: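 HCV replicon cells treated 3 days with 10 serial 2-fold compound dilutions (top 25 μM to 1 μM; 0.5% DMSO, 10% FBS). Replicon RNA quantified by multiplex Taqman RT-PCR (NS5B amplicon, GAPDH control); EC50 and EC90 = concentrations giving ΔCT of 1 and 3.2 over baseline.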
# [1] = replicon RNA level by real time PCR (Taqman), harvested on day 3, calculated EC90 reported as range class
# [2] = replicon RNA level by real time PCR, harvested day 3
# [3] = harvested day 3, replicon RNA by real time PCR, reported as range class
# [4] = harvested day 3, replicon RNA by real time PCR, given as number
# [5] = harvested on day 3, replicon RNA by real time PCR, calculated EC90 reported as range class
smiles,measurement,setting,value
CCOCCNc1nc(C)c(-c2nc3cc(OC)ccc3s2)c(N[C@@H]2C[C@H](CO)[C@@H](O)[C@H]2O)n1 [Example 1008],EC90,[1],0.5 to 5 µM
Cc1nc(NCC2CC2)nc(N)c1-c1nc2cnccc2s1 [Example 1510],EC90,[2],0.5 to 5 µM
CCOc1cc2sc(-c3c(C)nc(NCC4CC4)nc3N[C@@H]3C[C@H](CO)[C@@H](O)[C@H]3O)nc2c(C)n1 [Example 1374],EC90,[2],0.5 to 5 µM
COc1cccc(Nc2nc(C)c(-c3nc4ccccc4s3)c(N[C@@H]3C[C@H](CO)[C@@H](O)[C@H]3O)n2)c1OC [Example 1129],EC90,[1],> 5 µM
Cc1nc(NCC2CC2)nc(N[C@@H]2CC[C@@H](O)C2O)c1-c1nc2ccccc2s1 (stereo partly drawn) [Example 1626],EC90,[2],0.5 to 5 µM
Cc1nc(NCC2CC2)nc(N[C@@H]2C[C@H](CO)[C@@H](O)[C@H]2O)c1-c1nc2cnccc2o1 [Example 2003],EC90,"replicon RNA level by real time PCR (Taqman), day 3, calculated EC90",0.5 to 5 µM
Cc1nc(NS(C)(=O)=O)nc(N[C@@H]2C[C@H](CO)[C@@H](O)[C@H]2O)c1-c1nc2ccccc2s1 [Example 1917],EC90,[2],> 5 µM
Cc1nc(NCc2nccs2)nc(N[C@@H]2C[C@H](CO)[C@@H](O)[C@H]2O)c1-c1nc2cnccc2s1 [Example 541],EC90,[1],< 0.5 µM
Cc1nc(N)nc(N[C@@H]2C[C@H](COS(C)(=O)=O)[C@@H](O)[C@H]2O)c1-c1nc2ccccc2s1 [Example 1905],EC90,[2],0.5 to 5 µM
Cc1nc(N[C@H](C)C2CC2)nc(N[C@@H]2C[C@@H](C(C)O)[C@@H](O)[C@H]2O)c1-c1nc2cnccc2s1 (stereo partly drawn) [Example 1651],EC90,[2],< 0.5 µM
CCOc1cc2cc(-c3c(C)nc(Nc4ccccc4)nc3N[C@@H]3C[C@H](CO)[C@@H](O)[C@H]3O)oc2c(C)n1 [Example 33],EC90,[3],> 5 µM
Nc1nc(Cl)c(-c2cc3cc(C(=O)N4CCOCC4)ccc3o2)c(N[C@@H]2C[C@H](CO)[C@@H](O)[C@H]2O)n1 [Example 175],EC90,[3],> 5 µM
[2H]C([2H])(Nc1nc(C)c(-c2nc3ccccc3s2)c(N[C@@H]2C[C@H](CO)[C@@H](O)[C@H]2O)n1)C(F)(F)F [Example 1250],EC90,[1],0.5 to 5 µM
Cc1nc(NCC(F)(F)F)nc(N[C@@H]2C[C@H](C(C)(C)O)[C@@H](O)[C@H]2O)c1-c1nc2ccccc2s1 [Example 1640],EC90,[2],0.5 to 5 µM
Cc1nc(NCc2cccc(S(C)(=O)=O)c2)nc(N[C@@H]2C[C@H](CO)[C@@H](O)[C@H]2O)c1-c1nc2ccccc2s1 [Example 1225],EC90,[1],0.5 to 5 µM
Cc1nc(NCC2CC2)nc(NC2CC(CO)(CO)C2)c1-c1nc2ccccc2s1 [Example 1610],EC90,[2],0.5 to 5 µM
CCOc1cc2cc(-c3c(C)nc(NCc4nccs4)nc3N[C@@H]3C[C@H](CO)[C@@H](O)[C@H]3O)oc2c(C)n1 [Example 24],EC90,[4],0.02 µM
Cc1nc(NCC2CC2)nc(N[C@@H]2C[C@H](CO)[C@@H](O)C2(C)O)c1-c1nc2cnccc2s1 (stereo partly drawn) [Example 1383],EC90,[2],< 0.5 µM
Cc1nc(NCC2CC2)nc(N[C@H]2[C@H](O)CC[C@@H]2O)c1-c1nc2ccccc2s1 [Example 1627],EC90,[2],> 5 µM
OC[C@H]1C[C@@H](Nc2nc(NCC(F)F)nc(Cl)c2-c2nc3ccccc3s2)[C@H](O)[C@@H]1O [Example 214],EC90,[3],< 0.5 µM
Cc1nc(NCC2CC2)nc(N[C@@H]2C[C@H](CO)[C@@H](O)[C@H]2O)c1-c1cc2cc(-c3cccs3)nc(C)c2o1 [Example 43],EC90,[3],> 5 µM
CCCOCCNc1nc(C)c(-c2nc3ccccc3s2)c(N[C@@H]2C[C@H](CO)[C@@H](O)[C@H]2O)n1 [Example 227],EC90,[3],< 0.5 µM
CCc1cc2cc(-c3c(C)nc(NCc4cc(C)on4)nc3N[C@@H]3C[C@H](CO)[C@@H](O)[C@H]3O)oc2cn1 [Example 703],EC90,[5],< 0.5 µM
CCc1cc2cc(-c3c(C)nc(NCc4ccco4)nc3N[C@@H]3C[C@H](CO)[C@H]4OC(C)(C)O[C@H]43)oc2cn1 [Example 704],EC90,[5],< 0.5 µM
Cc1nc(NCC(C)(C)C)nc(N[C@@H]2C[C@H](CO)[C@H]3OC(C)(C)O[C@H]32)c1-c1cc2cc(C(C)(C)C)ncc2o1 [Example 1103],EC90,[1],> 5 µM
Cc1ccc([C@@H](C)Nc2nc(C)c(-c3nc4c(OCC5CC5)nccc4s3)c(N[C@@H]3C[C@H](CO)[C@@H](O)[C@H]3O)n2)cc1 [Example 1339],EC90,[2],< 0.5 µM
Cc1nc(NCc2ccccn2)nc(N[C@@H]2C[C@H](CO)[C@H]3OC(C)(C)O[C@H]32)c1-c1nc2ccccc2s1 [Example 462],EC90,[5],0.5 to 5 µM
Cc1nc(NCC(C)(C)C)nc(N[C@@H]2C[C@H](CO)[C@@H](O)[C@H]2O)c1-c1nc2c(s1)CCN(C)C2 [Example 1321],EC90,[1],0.5 to 5 µM
Cc1ccc2oc(-c3c(Cl)nc(N)nc3N[C@@H]3C[C@H](CO)[C@@H](O)[C@H]3O)cc2n1 [Example 16],EC90,[3],0.5 to 5 µM
Cc1nc(Nc2cccc(OC(F)(F)F)c2)nc(N[C@@H]2C[C@H](CO)[C@@H](O)[C@H]2O)c1-c1nc2ccccc2s1 [Example 1237],EC90,[1],> 5 µM
Cc1nc(N[C@H](C)C2CC2)nc(N[C@@H]2CC[C@@H](O)[C@@]2(C)O)c1-c1nc2c(C)nccc2s1 [Example 1817],EC90,[2],< 0.5 µM
Cc1nc(N)nc(N[C@@H]2C[C@H](CO)[C@@H](O)[C@H]2O)c1-c1nc2c(C)nccc2s1 [Example 1534],EC90,[2],> 5 µM
CCN(CC)c1nc(Cl)c(-c2nc3ccccc3s2)c(N[C@@H]2C[C@H](CO)[C@@H](O)[C@H]2O)n1 [Example 411],EC90,[3],0.5 to 5 µM
CCOc1ccc(CCNc2nc(C)c(-c3nc4cnccc4s3)c(N[C@@H]3C[C@H](CO)[C@@H](O)[C@H]3O)n2)cc1 [Example 1705],EC90,[2],< 0.5 µM
Cc1nc(NCc2cccc(F)c2)nc(N[C@@H]2C[C@H](CO)[C@H]3OC(C)(C)O[C@H]32)c1-c1nc2ccccc2s1 [Example 243],EC90,[5],< 0.5 µM
CCOc1nc(C)cc2cc(-c3c(C)nc(NCc4cc(OC)cc(OC)c4)nc3N[C@@H]3C[C@H](CO)[C@@H](O)[C@H]3O)oc12 [Example 1248],EC90,[1],0.5 to 5 µM
CON=C1[C@H](Nc2nc(NCC(F)(F)F)nc(C)c2-c2nc3ccccc3s2)C[C@H](CO)[C@H]1O [Example 55],EC90,[4],3.4 µM
CNc1ccc2oc(-c3c(C)nc(NCC(F)(F)F)nc3N[C@@H]3C[C@H](CO)[C@@H](O)[C@H]3O)nc2c1 [Example 1064],EC90,[1],> 5 µM
Nc1nc(Cl)c(-c2cc3cc(F)c(F)cc3o2)c(N[C@@H]2C[C@H](CO)[C@@H](O)[C@H]2O)n1 [Example 169],EC90,[3],> 5 µM
OC[C@H]1C[C@@H](Nc2nc(NCc3ccccc3)nc(Cl)c2-c2nc3ccccc3s2)[C@H](O)[C@@H]1O [Example 430],EC90,[5],< 0.5 µM
CNc1ccc2oc(-c3c(C)nc(NCC4CC4)nc3N[C@@H]3C[C@H](CO)[C@@H](O)[C@H]3O)nc2c1 [Example 1065],EC90,[1],0.5 to 5 µM
Cc1nc(NCc2cccs2)nc(N[C@@H]2CC[C@@H](O)[C@H]2O)c1-c1nc2ccccc2s1 [Example 336],EC90,[5],< 0.5 µM
CCc1cc2cc(-c3c(Cl)nc(NCCC(F)(F)F)nc3N[C@@H]3C[C@H](CO)[C@@H](O)[C@H]3O)oc2cn1 [Example 520],EC90,[5],< 0.5 µM
COCCNc1nc(C#N)c(-c2nc3ccccc3s2)c(N[C@@H]2C[C@H](CO)[C@@H](O)[C@H]2O)n1 [Example 1301],EC90,[1],> 5 µM
Cc1nc(NCC2CC2)nc(N[C@@H]2C[C@H](CO)[C@@H](O)[C@H]2O)c1-c1nc2ccccc2n1C [Example 530],EC90,[1],> 5 µM
CCc1nccc2sc(-c3c(C)nc(N[C@H](C)C4CC4)nc3N[C@@H]3C[C@H](CO)[C@@H](O)[C@H]3O)nc12 [Example 1505],EC90,[2],< 0.5 µM
Cc1nc(NCC2CC2)nc(N[C@@H]2C[C@H](CO)[C@@H](O)[C@H]2O)c1-c1nc2ccccc2s1 [Example 505],EC90,[5],< 0.5 µM
CCOC(=O)NCCNc1nc(C)c(-c2nc3ccccc3s2)c(N[C@@H]2C[C@H](CO)[C@H]3OC(C)(C)O[C@H]32)n1 [Example 255],EC90,[5],< 0.5 µM
COC[C@H]1C[C@@H](Nc2nc(N(C)C)nc(C)c2-c2nc3ccccc3s2)[C@H](O)[C@@H]1O [Example 123],EC90,[3],> 5 µM
Cc1nc(NCC(C)(C)C)nc(N[C@@H]2C[C@H](CO)[C@@H](O)[C@H]2O)c1-c1nc2ccccc2s1 [Example 437],EC90,[5],< 0.5 µM
CCN(C)c1nc(Cl)c(-c2nc3ccccc3s2)c(N[C@@H]2C[C@H](CO)[C@@H](O)[C@H]2O)n1 [Example 318],EC90,[3],< 0.5 µM
Cc1nc(NC2CC2)nc(N[C@@H]2C[C@H](CO)[C@@H](O)[C@H]2O)c1-c1nc2cnccc2s1 [Example 534],EC90,[1],< 0.5 µM
Cc1nc(NCC2CC2)nc(NC[C@@H]2CC2(CO)CO)c1-c1nc2ccccc2s1 [Example 1617],EC90,[2],> 5 µM
COCCNc1nc(C)c(-c2cc3cc(OC)ncc3o2)c(N[C@@H]2C[C@H](CO)[C@@H](O)[C@H]2O)n1 [Example 25],EC90,[4],0.8 µM
CNC(=O)c1ccc2cc(-c3c(Cl)nc(N)nc3N[C@@H]3C[C@H](CO)[C@@H](O)[C@H]3O)oc2c1 [Example 177],EC90,[3],> 5 µM
Cc1nc(NCC(C)(C)C)nc(N[C@@H]2C[C@H](CO)[C@@H](O)[C@H]2O)c1-c1ccc2ccccc2n1 [Example 1322],EC90,[1],> 5 µM
Cc1nc(NCCc2cccs2)nc(N[C@@H]2C[C@H](CO)[C@@H](O)[C@H]2O)c1-c1nc2cnccc2s1 [Example 1806],EC90,[2],> 5 µM
COCCNc1nc(C)c(-c2nc3cc(OC(F)F)c(OC(F)F)cc3s2)c(N[C@@H]2C[C@H](CO)[C@H]3OC(C)(C)O[C@H]32)n1 [Example 1003],EC90,[1],> 5 µM
COCCNc1nc(Cl)c(-c2nc3ccccc3s2)c(N[C@@H]2C[C@H](CO)[C@@H](O)[C@H]2O)n1 [Example 201],EC90,[3],< 0.5 µM
Cc1ccsc1CNc1nc(C)c(-c2nc3ccccc3s2)c(N[C@@H]2C[C@H](CO)[C@H]3OC(C)(C)O[C@H]32)n1 [Example 476],EC90,[5],< 0.5 µM
